{
  "source": "paper PMC11500415",
  "about": "“Chemical inhibition of stomatal differentiation by perturbation of the master-regulatory bHLH heterodimer via an ACT-Like domain” (Nature Communications, 2024)",
  "key": {"[1]": {"experiment": "Stability in aqueous conditions by LC/MS", "format": "physicochemical", "protocol": "Next, to directly address the stability of Stomidazolone in the aqueous condition we used for our bioassays, we performed liquid chromatography-mass spectrometry (LC/MS) (Supplementary Fig. 4). Stomidazolone was incubated in the 1/2 MS liquid medium (pH 5.7) at room temperature for 48 hours. […] Additionally, we tested Stomidazolone’s stability in phosphate buffer (pH 7.0).\nStomidazolone in 1/2 MS liquid media (pH 5.7) or phosphate buffer (pH 7.0) was detected by LC (Agilent 1200, Agilent Technologies, Santa Clara, USA) coupled to a single quadrupole mass spectrometer (Agilent 6130) equipped with an APCI-ES source. For the stability assay of Stomidazolone, the analytical samples were prepared as follows: 100 μL 5 mM Stomidazolone in DMSO was diluted with 900 μL 1/2MS (pH5.7) or 50 mM Phosphate buffer (pH 7.0). The Stomidazolone solutions were incubated at room temperature with rotating. At 0 or 48 hr after incubation, the 10 μL of solution were collected, diluted with water: acetonitrile;= 50:50, and applied to LC/MS. […] The mobile phase consisted of 5 mM ammonium formate: acetonitrile = 80:20 at a flow rate of 0.6 mL/min. in isocratic mode, and detected by mass spectrometry (MS). […] The electrospray ionization mass spectra (ESI-MS) recorded in the mass-to-charge ratio range from m/z 80–1000 was collected. […]"}, "[2]": {"target": "T1, SCRM2-MUTE heterodimer (Arabidopsis thaliana, UniProt Q9M8K6)", "T1 construct": "heterodimerization of SCRM with full-length SPCH, MUTE, or FAMA in the context of the plant cells; nYFP (N terminus of EYFP, 174 amino acids); expressed in transfected cells; host or cells: Nicotiana benthamiana leaves (Agrobacterium infiltration)", "experiment": "Ratiometric BiFC in N. benthamiana leaves", "format": "cell-based", "details": "100 µM", "text": "(§1) For ratiometric BiFC assays, the cDNAs of SPCH, MUTE, and FAMA were cloned into the 35S CaMV promoter-driven destination vector pSPYNE, which contains the N terminus of the EYFP protein (nYFP-174 amino acids), while the cDNA of SCRM and SCRM2 was inserted into pSPYCE, which contains the C terminus of the EYFP protein (cYFP-64 amino acids) (see Supplementary Table 5 for detailed information of the constructs). The constructs were then transformed into Agrobacterium tumefaciens strain GV3101. The Agrobacterium was resuspended in infiltration buffer (10 mM MgCl2, 10 mM 2-(N-morpholino)ethanesulfonic acid [pH 5.6], and 150 µM acetosyringone). Bacterial culture densities were adjusted to a final optical density (OD600) of 1.0, and the cell suspensions were incubated at room temperature for 4 hours prior to infiltration. Equal volumes of cultures carrying the corresponding complementary pair of BiFC constructs (YFPn and YFPc), along with CaMV35S::Histone H2B-mScarlet-I3 and the silencing suppressor plasmid p19 (a gift from Dr. Sir David Baulcombe) were mixed and then co-infiltrated into 4-week-old N. benthamiana leaves. The infiltrated N. benthamiana leaves were incubated at 25 °C for 2 days. Subsequently, leaf discs were cut out and cultured in mock or in liquid 1/2 MS media in mock (DMSO) or 100 µM Stomidazolone for 1 day. Confocal imaging of N. benthamiana leaves was performed using a Leica SP8 confocal microscope using a 20X objective lens (Leica Microsystems), simultaneously capturing YFP (excitation at 518 nm and emission at 530 nm) and mScarlet-I3 (excitation at 569 nm and emission at 600 nm) differential interference contrast channels."}, "[3]": {"target": "T2, SCRM2-FAMA heterodimer (Arabidopsis thaliana, UniProt Q56YJ8)", "T2 construct": "heterodimerization of SCRM with full-length SPCH, MUTE, or FAMA in the context of the plant cells; we performed rBiFC assays using full-length SCRM2; nYFP (N terminus of EYFP, 174 amino acids); cYFP (C terminus of EYFP, 64 amino acids); expressed in transfected cells; host or cells: Nicotiana benthamiana leaves (Agrobacterium infiltration)", "T2 sequence (Q56YJ8 whole entry, one chain of several)": "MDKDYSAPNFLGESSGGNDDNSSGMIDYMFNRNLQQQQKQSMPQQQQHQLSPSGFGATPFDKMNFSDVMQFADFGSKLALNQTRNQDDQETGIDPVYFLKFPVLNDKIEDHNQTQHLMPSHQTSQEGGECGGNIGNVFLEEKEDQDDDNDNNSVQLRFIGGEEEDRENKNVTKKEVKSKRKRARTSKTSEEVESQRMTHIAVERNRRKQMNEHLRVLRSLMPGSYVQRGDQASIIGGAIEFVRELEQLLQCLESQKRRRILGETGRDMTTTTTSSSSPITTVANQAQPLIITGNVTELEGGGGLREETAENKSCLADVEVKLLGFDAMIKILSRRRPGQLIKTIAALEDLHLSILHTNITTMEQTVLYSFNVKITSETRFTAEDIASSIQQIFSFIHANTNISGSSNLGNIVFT", "experiment": "Ratiometric BiFC in N. benthamiana leaves", "format": "cell-based", "details": "100 µM", "text": "as §1"}, "[4]": {"target": "T3, SCRM-MUTE heterodimer (Arabidopsis thaliana, UniProt Q9M8K6)", "T3 construct": "expressed in transfected cells; host or cells: yeast strain AH109", "T3 sequence (Q9M8K6 1-202)": "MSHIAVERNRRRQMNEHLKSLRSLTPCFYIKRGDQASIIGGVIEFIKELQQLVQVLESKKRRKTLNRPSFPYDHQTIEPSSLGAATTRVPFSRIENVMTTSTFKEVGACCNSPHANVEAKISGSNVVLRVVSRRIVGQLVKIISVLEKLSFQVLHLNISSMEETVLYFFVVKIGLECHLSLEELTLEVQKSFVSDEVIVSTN", "experiment": "Ratiometric BiFC in N. benthamiana leaves", "format": "cell-based", "details": "100 μM, 1 day", "text": "as §1"}, "[5]": {"target": "T4, SCRM2-SPCH heterodimer (Arabidopsis thaliana, UniProt Q700C7)", "T4 construct": "heterodimerization of SCRM with full-length SPCH, MUTE, or FAMA in the context of the plant cells; we performed rBiFC assays using full-length SCRM2; nYFP (N terminus of EYFP, 174 amino acids); cYFP (C terminus of EYFP, 64 amino acids); expressed in transfected cells; host or cells: Nicotiana benthamiana leaves (Agrobacterium infiltration)", "T4 sequence (Q700C7 whole entry, one chain of several)": "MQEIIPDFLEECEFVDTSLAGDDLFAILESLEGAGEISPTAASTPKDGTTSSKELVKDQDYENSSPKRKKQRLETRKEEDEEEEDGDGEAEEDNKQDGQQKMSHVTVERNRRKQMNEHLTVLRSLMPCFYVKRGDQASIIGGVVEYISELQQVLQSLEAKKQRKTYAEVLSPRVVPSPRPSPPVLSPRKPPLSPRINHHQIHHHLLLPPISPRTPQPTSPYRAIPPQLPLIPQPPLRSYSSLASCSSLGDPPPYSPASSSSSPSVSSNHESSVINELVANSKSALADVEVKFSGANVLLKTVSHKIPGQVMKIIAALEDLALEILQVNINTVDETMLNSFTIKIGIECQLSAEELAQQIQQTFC", "experiment": "Ratiometric BiFC in N. benthamiana leaves", "format": "cell-based", "details": "100 µM", "text": "as §1"}, "[6]": {"target": "T5, DB+SCRM (control yeast) (Arabidopsis thaliana, UniProt Q9LSE2)", "T5 construct": "expressed in transfected cells; host or cells: yeast strain AH109", "T5 sequence (Q9LSE2 1-494)": "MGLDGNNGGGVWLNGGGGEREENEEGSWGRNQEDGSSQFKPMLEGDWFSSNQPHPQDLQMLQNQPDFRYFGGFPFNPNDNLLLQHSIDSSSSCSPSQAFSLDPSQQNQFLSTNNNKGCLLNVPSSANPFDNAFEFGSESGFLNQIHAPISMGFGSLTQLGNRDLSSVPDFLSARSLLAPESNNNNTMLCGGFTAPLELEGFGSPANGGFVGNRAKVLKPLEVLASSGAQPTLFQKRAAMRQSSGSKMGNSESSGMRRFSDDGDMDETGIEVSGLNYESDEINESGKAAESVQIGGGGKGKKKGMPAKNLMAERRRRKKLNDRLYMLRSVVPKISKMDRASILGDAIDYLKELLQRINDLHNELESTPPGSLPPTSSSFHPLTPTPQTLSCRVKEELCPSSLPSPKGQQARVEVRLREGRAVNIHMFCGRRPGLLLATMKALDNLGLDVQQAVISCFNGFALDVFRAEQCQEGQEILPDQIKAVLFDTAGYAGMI", "experiment": "Y2H quantitative α-galactosidase assay, control pair DB+SCRM", "format": "cell-based", "details": "individual replicates, listed as AYSJ929", "text": "Supplement 41467_2024_53214_MOESM7_ESM.xlsx, sheet \"Fig.6b\" | column: a-galactosidase [milliunits /(ml x cell)]"}},
  "note": "“And” between values parts separate entries of the source, which are not always exact repeats. Equal values may be shown once.",
  "data": [
    {"smiles": "O=C1C(c2ccccc2)=NC(NS(=O)(=O)c2ccccc2)(c2ccccc2)N1S(=O)(=O)c1ccccc1", "note": "(stereo not drawn) [Stomidazolone]", "values": [
      {"measurement": "stability in 1/2 MS liquid medium (LC/MS)", "setting": "[1]; pH 5.7, room temperature, 48 hours", "value": "no lzx103 peak (2.13 min) was detected"},
      {"measurement": "stability in phosphate buffer (LC/MS)", "setting": "[1]; pH 7.0, room temperature, 48 h", "value": "did not detect the degradation"},
      {"measurement": "effect on heterodimerization (in words)", "setting": "[2]", "value": "abolished"},
      {"measurement": "effect on heterodimerization (in words)", "setting": "[3]", "value": "abolished"},
      {"measurement": "effect on heterodimerization, YFP/RFP signal ratio (in words)", "setting": "[4]", "value": "severely perturbs"},
      {"measurement": "effect on heterodimerization (in words)", "setting": "[5]", "value": "abolished"},
      {"measurement": "a-galactosidase", "setting": "[6]; 10 µM", "value": "0.72 milliunits /(ml x cell) and 0.19 milliunits /(ml x cell) and 0.32 milliunits /(ml x cell)"},
      {"measurement": "a-galactosidase", "setting": "[6]; 50 µM", "value": "0.16 milliunits /(ml x cell) and 0.47 milliunits /(ml x cell) and 0.51 milliunits /(ml x cell)"},
      {"measurement": "a-galactosidase", "setting": "[6]; 100 µM", "value": "0.46 milliunits /(ml x cell) and 0.80 milliunits /(ml x cell) and 0.52 milliunits /(ml x cell)"}
    ]}
  ]
}
